Results reported in ChEMBL document CHEMBL3885861, “Open TG-GATES”.

Species: Rattus norvegicus
Assay: Open TG-GATES - Regimen: Single
Type: toxicity, organism-based, Sprague-Dawley
Parameters: regimen Single, gender Male, age 6 weeks
Details: in vivo, po, 100 mg/kg, route gavage, dose level Low; for APTT / Bas / Eos / Fbg / Hb / Ht / Lym / MCH / MCHC / MCV / Mono / Neu / PT / Plat / RBC / Ret / WBC: tissue Blood; for KIDNEY_L / KIDNEY_R / KIDNEY_TOTAL: tissue Kidney; for LIVER: tissue Liver; for A/G / ALP / ALT / AST / BUN / CRE / Ca / Cl / DBIL / GLC / IP / K / LDH / Na / PL / RALB / TBIL / TC / TG / TP / gamma-GTP: tissue Plasma

Work on `CN(C)[C@@H]1C(O)=C(C(N)=O)C(=O)[C@@]2(O)C(O)=C3C(=O)c4c(O)cccc4[C@@](C)(O)[C@H]3C[C@@H]12` [TETRACYCLINE] yielded a TERMINAL_BW (3 h) of 185.7 g, an APTT (3 h) of 16.7 s and a Bas (3 h) of 0%. For the same compound, the Eos (3 h) was 0.8%, the Fbg (3 h) was 197.8 mg/dL and the Hb (3 h) was 12.8 g/dL. The Ht (3 h) was 38.5%, the Lym (3 h) was 84.2% and the MCH (3 h) was 21.8 pg. The MCHC (3 h) was 33.2%, the MCV (3 h) was 65.7 fL and the Mono (3 h) was 6.4%. For the same compound, the Neu (3 h) was 9.2%, the PT (3 h) was 12.1 s and the Plat (3 h) was 98.5 x10_4/uL. For the same compound, the RBC (3 h) was 586.6 x10_4/ul, the Ret (3 h) was 9.8% and the WBC (3 h) was 101.6 x10_2/uL. For the same compound, the KIDNEY_L (3 h) was 0.9 g, the KIDNEY_R (3 h) was 0.9 g and the KIDNEY_TOTAL (3 h) was 1.9 g. The LIVER (3 h) was 8.9 g, the A/G (3 h) was 2.3 and the ALP (3 h) was 713.6 IU/L. The ALT (3 h) was 40 IU/L, the AST (3 h) was 69.4 IU/L and the BUN (3 h) was 12 mg/dL. It also gave a CRE (3 h) of 0.5 mg/dL, a Ca (3 h) of 11.1 mg/dL and a Cl (3 h) of 104 meq/L. The DBIL (3 h) was 0.036 mg/dL, the GLC (3 h) was 179.8 mg/dL and the IP (3 h) was 10.7 mg/dL. For the same compound, the K (3 h) was 4.9 meq/L, the LDH (3 h) was 84.2 IU/L and the Na (3 h) was 137.4 meq/L. It also gave a PL (3 h) of 127.8 mg/dL, an RALB (3 h) of 3.8 g/dL and a TBIL (3 h) of 0.4 mg/dL. For the same compound, the TC (3 h) was 73.8 mg/dL, the TG (3 h) was 38 mg/dL and the TP (3 h) was 5.4 g/dL. It also gave a gamma-GTP (3 h) of 1.2 IU/L, a TERMINAL_BW (6 h) of 184.5 g and an APTT (6 h) of 16.5 s. The Bas (6 h) was 0%, the Eos (6 h) was 0.6% and the Fbg (6 h) was 199.6 mg/dL. It also gave a Hb (6 h) of 13.2 g/dL, a Ht (6 h) of 39.9% and a Lym (6 h) of 80.2%. The MCH (6 h) was 21.9 pg, the MCHC (6 h) was 33.2% and the MCV (6 h) was 66 fL. For the same compound, the Mono (6 h) was 5.2%, the Neu (6 h) was 14.4% and the PT (6 h) was 12.1 s. For the same compound, the Plat (6 h) was 107 x10_4/uL, the RBC (6 h) was 607.2 x10_4/ul and the Ret (6 h) was 10.1%. It also gave a WBC (6 h) of 95.2 x10_2/uL, a KIDNEY_L (6 h) of 0.9 g and a KIDNEY_R (6 h) of 0.9 g. For the same compound, the KIDNEY_TOTAL (6 h) was 1.7 g, the LIVER (6 h) was 8.3 g and the A/G (6 h) was 2.2. For the same compound, the ALP (6 h) was 880.4 IU/L, the ALT (6 h) was 36.2 IU/L and the AST (6 h) was 69.6 IU/L. For the same compound, the BUN (6 h) was 12.2 mg/dL, the CRE (6 h) was 0.4 mg/dL and the Ca (6 h) was 10.8 mg/dL. It also gave a Cl (6 h) of 106 meq/L, a DBIL (6 h) of 0.02 mg/dL and a GLC (6 h) of 175.6 mg/dL. It also gave an IP (6 h) of 10.3 mg/dL, a K (6 h) of 5.1 meq/L and an LDH (6 h) of 85.2 IU/L. For the same compound, the Na (6 h) was 137 meq/L, the PL (6 h) was 139 mg/dL and the RALB (6 h) was 3.6 g/dL. It also gave a TBIL (6 h) of 0.3 mg/dL, a TC (6 h) of 82.2 mg/dL and a TG (6 h) of 32.4 mg/dL. The TP (6 h) was 5.3 g/dL, the gamma-GTP (6 h) was 1.6 IU/L and the TERMINAL_BW (9 h) was 181.6 g. For the same compound, the APTT (9 h) was 16.5 s, the Bas (9 h) was 0% and the Eos (9 h) was 0.4%. It also gave a Fbg (9 h) of 210.6 mg/dL, a Hb (9 h) of 12.9 g/dL and a Ht (9 h) of 39.4%. For the same compound, the Lym (9 h) was 81.8%, the MCH (9 h) was 21.8 pg and the MCHC (9 h) was 32.8%. The MCV (9 h) was 66.4 fL, the Mono (9 h) was 5.8% and the Neu (9 h) was 11.6%. The PT (9 h) was 12.2 s, the Plat (9 h) was 102.3 x10_4/uL and the RBC (9 h) was 592.8 x10_4/ul. The Ret (9 h) was 9.5%, the WBC (9 h) was 93.6 x10_2/uL and the KIDNEY_L (9 h) was 0.9 g. The KIDNEY_R (9 h) was 0.9 g, the KIDNEY_TOTAL (9 h) was 1.7 g and the LIVER (9 h) was 7.5 g. For the same compound, the A/G (9 h) was 2.2, the ALP (9 h) was 861 IU/L and the ALT (9 h) was 32.8 IU/L. The AST (9 h) was 64 IU/L, the BUN (9 h) was 13.2 mg/dL and the CRE (9 h) was 0.4 mg/dL. For the same compound, the Ca (9 h) was 10.5 mg/dL, the Cl (9 h) was 105.8 meq/L and the DBIL (9 h) was 0.022 mg/dL. The GLC (9 h) was 176.8 mg/dL, the IP (9 h) was 10.5 mg/dL and the K (9 h) was 5.1 meq/L. The LDH (9 h) was 93.8 IU/L, the Na (9 h) was 138.4 meq/L and the PL (9 h) was 126.6 mg/dL. The RALB (9 h) was 3.8 g/dL, the TBIL (9 h) was 0.3 mg/dL and the TC (9 h) was 73.4 mg/dL. It also gave a TG (9 h) of 26 mg/dL, a TP (9 h) of 5.5 g/dL and a gamma-GTP (9 h) of 1.8 IU/L. The TERMINAL_BW (24 h) was 196.8 g, the APTT (24 h) was 16.4 s and the Bas (24 h) was 0%. It also gave an Eos (24 h) of 0.5%, a Fbg (24 h) of 218 mg/dL and a Hb (24 h) of 13.5 g/dL. It also gave a Ht (24 h) of 41.6%, a Lym (24 h) of 84% and an MCH (24 h) of 22 pg. The MCHC (24 h) was 32.4%, the MCV (24 h) was 67.9 fL and the Mono (24 h) was 8.5%. For the same compound, the Neu (24 h) was 7.2%, the PT (24 h) was 11.9 s and the Plat (24 h) was 105.1 x10_4/uL. The RBC (24 h) was 614 x10_4/ul, the Ret (24 h) was 10.3% and the WBC (24 h) was 88.6 x10_2/uL. The KIDNEY_L (24 h) was 0.9 g, the KIDNEY_R (24 h) was 0.9 g and the KIDNEY_TOTAL (24 h) was 1.8 g. For the same compound, the LIVER (24 h) was 9.1 g, the A/G (24 h) was 2.1 and the ALP (24 h) was 914 IU/L. For the same compound, the ALT (24 h) was 34 IU/L, the AST (24 h) was 64.8 IU/L and the BUN (24 h) was 17.8 mg/dL. For the same compound, the CRE (24 h) was 0.5 mg/dL, the Ca (24 h) was 11.4 mg/dL and the Cl (24 h) was 104.8 meq/L. It also gave a DBIL (24 h) of 0 mg/dL, a GLC (24 h) of 188.5 mg/dL and an IP (24 h) of 10 mg/dL. It also gave a K (24 h) of 5.2 meq/L, an LDH (24 h) of 97.8 IU/L and a Na (24 h) of 140.8 meq/L. The PL (24 h) was 154.2 mg/dL, the RALB (24 h) was 3.9 g/dL and the TBIL (24 h) was 0.3 mg/dL. The TC (24 h) was 86.5 mg/dL, the TG (24 h) was 66.2 mg/dL and the TP (24 h) was 5.8 g/dL. For the same compound, the gamma-GTP (24 h) was 1 IU/L.
